The source of these data is the NIST ThermoML archive (doi:10.1021/je030156p).

For the series the following is noted: Liquid, Ebulliometric method (Recirculating still).

± gives the expanded uncertainty stated by the source.

One may read the vapor or sublimation pressure as the equilibrium pressure above the liquid or solid. For the molecule `CCC` [propane], the “vapor or sublimation pressure” value came to 407.9 ± 2 kPa (268.15 K); 476.9 ± 2 kPa (273.15 K); 637.2 ± 2.1 kPa (283.15 K); 839.2 ± 2.1 kPa (293.15 K); 1074.6 ± 2.1 kPa (303.15 K); 1364.3 ± 2.2 kPa (313.15 K).

Turning to `FC(F)C(F)(F)F` [pentafluoroethane], the “vapor or sublimation pressure” value worked out at 573.7 ± 2 kPa (268.15 K); 671.4 ± 2.1 kPa (273.15 K); 907.6 ± 2.1 kPa (283.15 K); 1202.8 ± 2.1 kPa (293.15 K); 1566 ± 2.2 kPa (303.15 K); 2004.9 ± 2.2 kPa (313.15 K).
